Measured values: publication PMC11511665 (2024)
Blank lines part the entries; values can stand above or below the compound they belong to.

Columns and labels:
[1] = tested on: Clivia_III (III_R8) (RNA, aptamer) GGAAGAUUGUAAACAGCGAGAUUGUAAACAGCGAGAUUGUAAACAUGCCGAAAGGCAGACACUCGCGACACUCGCGACACUUUC; assay: X-ray crystallography; settings: 0.2 M MgCl2; 20% PEG 3350, 16 °C
[2] = tested on: M1 (delete U7; Del-U7) (RNA, aptamer) GGAAGAUGUAAACAUGCCGAAAGGCAGACACUUCC; assay: fluorescence activation; settings: 100 mM KCl, 5 mM MgCl2; 40 mM HEPES pH 7.4; 1 μM fluorophore, 5 μM RNA
[3] = tested on: M2 (A11G/A12G/A13G) (RNA, aptamer) GGAAGAUUGUGGGCAUGCCGAAAGGCAGACACUUCC; assay: fluorescence activation; settings: 100 mM KCl, 5 mM MgCl2; 40 mM HEPES pH 7.4; 1 μM fluorophore, 5 μM RNA
[4] = tested on: M3 (A11C/A12C/A13C) (RNA, aptamer) GGAAGAUUGUCCCCAUGCCGAAAGGCAGACACUUCC; assay: fluorescence activation; settings: 100 mM KCl, 5 mM MgCl2; 40 mM HEPES pH 7.4; 1 μM fluorophore, 5 μM RNA
[5] = tested on: M4 (A11U/A12U/A13U) (RNA, aptamer) GGAAGAUUGUUUUCAUGCCGAAAGGCAGACACUUCC; assay: fluorescence activation; settings: 100 mM KCl, 5 mM MgCl2; 40 mM HEPES pH 7.4; 1 μM fluorophore, 5 μM RNA
[6] = tested on: M5 (U8C/A29G) (RNA, aptamer) GGAAGAUCGUAAACAUGCCGAAAGGCAGGCACUUCC; assay: fluorescence activation; settings: 100 mM KCl, 5 mM MgCl2; 40 mM HEPES pH 7.4; 1 μM fluorophore, 5 μM RNA
[7] = tested on: M6 (U8A/A29U) (RNA, aptamer) GGAAGAUAGUAAACAUGCCGAAAGGCAGUCACUUCC; assay: fluorescence activation; settings: 100 mM KCl, 5 mM MgCl2; 40 mM HEPES pH 7.4; 1 μM fluorophore, 5 μM RNA
[8] = tested on: M7 (A15G/G28A) (RNA, aptamer) GGAAGAUUGUAAACGUGCCGAAAGGCAAACACUUCC; assay: fluorescence activation; settings: 100 mM KCl, 5 mM MgCl2; 40 mM HEPES pH 7.4; 1 μM fluorophore, 5 μM RNA
[9] = tested on: M8 (G28U) (RNA, aptamer) GGAAGAUUGUAAACAUGCCGAAAGGCAUACACUUCC; assay: fluorescence activation; settings: 100 mM KCl, 5 mM MgCl2; 40 mM HEPES pH 7.4; 1 μM fluorophore, 5 μM RNA
[10] = tested on: M9 (A15C) (RNA, aptamer) GGAAGAUUGUAAACCUGCCGAAAGGCAGACACUUCC; assay: fluorescence activation; settings: 100 mM KCl, 5 mM MgCl2; 40 mM HEPES pH 7.4; 1 μM fluorophore, 5 μM RNA
[11] = tested on: Clivia_II (II_R8) (RNA, aptamer) GGAAGAUUGUAAACAGCGAGAUUGUAAACAUGCCGAAAGGCAGACACUCGCGACACUUUC; assay: fluorescence activation; settings: 100 mM KCl, 5 mM MgCl2; 40 mM HEPES pH 7.4
[12] = tested on: Clivia_IV (IV_R8) (RNA, aptamer) GGAAGAUUGUAAACAGCGAGAUUGUAAACAGCGAGAUUGUAAACAGCGAGAUUGUAAACAUGCCGAAAGGCAGACACUCGCGACACUCGCGACACUCGCGACACUUUC; assay: fluorescence activation; settings: 100 mM KCl, 5 mM MgCl2; 40 mM HEPES pH 7.4
[13] = tested on: Clivia_V (V_R8) (RNA, aptamer) GGAAGAUUGUAAACAGCGAGAUUGUAAACAGCGAGAUUGUAAACAGCGAGAUUGUAAACAGCGAGAUUGUAAACAUGCCGAAAGGCAGACACUCGCGACACUCGCGACACUCGCGACACUCGCGACACUUUC; assay: fluorescence activation; settings: 100 mM KCl, 5 mM MgCl2; 40 mM HEPES pH 7.4
[14] = tested on: Clivia_VI (VI_R8) (RNA, aptamer) GGAAGAUUGUAAACAGCGAGAUUGUAAACAGCGAGAUUGUAAACAGCGAGAUUGUAAACAGCGAGAUUGUAAACAGCGAGAUUGUAAACAUGCCGAAAGGCAGACACUCGCGACACUCGCGACACUCGCGACACUCGCGACACUCGCGACACUUUC; assay: fluorescence activation; settings: 100 mM KCl, 5 mM MgCl2; 40 mM HEPES pH 7.4
[15] = tested on: Clivia (R8 aptamer, GAAA tetraloop) (RNA, aptamer) GGAAGAUUGUAAACAUGCCGAAAGGCAGACACUUCC; assay: X-ray crystallography, 1.6 Å; settings: Mg2+ (0.05 M MgCl2); 0.1 M HEPES pH 7.5, 30% PEG MME 550, 16 °C
[16] = tested on: Clivia (R8 aptamer, GAAA tetraloop) (RNA, aptamer) GGAAGAUUGUAAACAUGCCGAAAGGCAGACACUUCC; assay: fluorescence titration, Hill fit; settings: 100 mM KCl, 5 mM MgCl2; 40 mM HEPES pH 7.4; 20 nM RNA
[17] = tested on: U7A (RNA, aptamer) GGAAGAAUGUAAACAUGCCGAAAGGCAGACACUUCC; assay: fluorescence titration, Hill fit; settings: 100 mM KCl, 5 mM MgCl2; 40 mM HEPES pH 7.4; 20 nM RNA
[18] = tested on: U7C (RNA, aptamer) GGAAGACUGUAAACAUGCCGAAAGGCAGACACUUCC; assay: fluorescence titration, Hill fit; settings: 100 mM KCl, 5 mM MgCl2; 40 mM HEPES pH 7.4; 20 nM RNA
[19] = tested on: U7G (RNA, aptamer) GGAAGAGUGUAAACAUGCCGAAAGGCAGACACUUCC; assay: fluorescence titration, Hill fit; settings: 100 mM KCl, 5 mM MgCl2; 40 mM HEPES pH 7.4; 20 nM RNA
[20] = tested on: M10 (delete 2bp in P1; Del-2bp-P1) (RNA, aptamer) GAGAUUGUAAACAUGCCGAAAGGCAGACACUC; assay: fluorescence titration, Hill fit; settings: 100 mM KCl, 5 mM MgCl2; 40 mM HEPES pH 7.4; 20 nM RNA
[21] = tested on: M11 (add 2bp in P1; Ad-2bp-P1) (RNA, aptamer) GGGGAAGAUUGUAAACAUGCCGAAAGGCAGACACUUCCCC; assay: fluorescence titration, Hill fit; settings: 100 mM KCl, 5 mM MgCl2; 40 mM HEPES pH 7.4; 20 nM RNA
[22] = tested on: M12 (delete 2bp in P2; Del-2bp-P2) (RNA, aptamer) GGAAGAUUGUAAACACCGAAAGGGACACUUCC; assay: fluorescence titration, Hill fit; settings: 100 mM KCl, 5 mM MgCl2; 40 mM HEPES pH 7.4; 20 nM RNA
[23] = tested on: M13 (add 2bp in P2; Ad-2bp-P2) (RNA, aptamer) GGAAGAUUGUAAACAUGCCGCGAAAGCGGCAGACACUUCC; assay: fluorescence titration, Hill fit; settings: 100 mM KCl, 5 mM MgCl2; 40 mM HEPES pH 7.4; 20 nM RNA
[24] = tested on: Clivia (R8 aptamer, GAAA tetraloop) (RNA, aptamer) GGAAGAUUGUAAACAUGCCGAAAGGCAGACACUUCC; assay: X-ray crystallography; settings: Mg2+ (0.05 M MgCl2); 0.1 M HEPES pH 7.5, 30% PEG MME 550, 16 °C

binding [1]: yes
binding [2]: no
binding [3]: no
binding [4]: no
binding [5]: no
binding [6]: no
binding [7]: no
binding [8]: no
binding [9]: weak
binding [10]: no
binding [11]: yes
binding [12]: yes
binding [13]: yes
binding [14]: yes
binding [15]: yes
Kd [16]: 71 ± 15 nM
Kd [17]: 107 ± 12 nM
Kd [18]: 46 ± 3 nM
Kd [19]: 152 ± 12 nM
Kd [20]: 84 nM
Kd [21]: 61 nM
Kd [22]: 44 nM
Kd [23]: 55 nM
Compound: CN1C(=O)/C(=C/c2ccc(N(C)CCO)cc2)N=C1/C=C/c1ccccc1

binding [24]: yes
Compound: CN1C(=O)/C(=C/c2cc(F)c(O)c(F)c2)N=C1/C=C/c1ccc(O)cc1

binding [24]: yes
Compound: CN1C(=O)/C(=C/c2cc(F)c(O)c(F)c2)N=C1/C=C/c1ccc(C#N)cc1

binding [24]: yes
Compound: CN1C(=O)/C(=C/c2cc(F)c(O)c(F)c2)N=C1/C=C/c1ccccc1
